Reference: PMC9737972, “Dual LSD1 and HDAC6 Inhibition Induces Doxorubicin Sensitivity in Acute Myeloid Leukemia Cells” (Cancers, 2022)

Key:
THP-1 cells = assay: RT-qPCR gene expression in THP-1 cells; type: cell-based; details: for p21 mRNA expression: THP-1 cells, 1 μM, 24 h
Description: NucleoSpin™ RNA Plus Isolation Kit (Macherey Nagel™, Dueren, Germany, 740955.50) and M-MLV Reverse Transcriptase kit (Thermo Fisher Scientific, Waltham, MA, USA, #28025013) protocols were employed for RNA isolation and cDNA synthesis, respectively, with 500 ng of RNA converted to cDNA for each sample. Gene expression levels were quantified with qRT–PCR method using a LightCycler 480 SYBR Green I Master (Roche Diagnostics, Penzberg, Germany, #50-720-3180) and normalized to β-actin or GAPDH. Briefly, 10 ng of cDNA template was amplified using 10 μL LightCycler 480 SYBR Green I Master (Roche Diagnostics), and gene-specific primers (Table S1) mixed in a final volume of 20 μL. The samples were incubated at 95 °C for 5 minutes, followed by 40 cycles of 95 °C for 10 seconds, 55 °C for 30 seconds, and 72 °C for 1 second. The relative amounts of gene expressions were calculated with the 2^(−ΔΔCT) method. All analyses were performed in duplicates and three biological replicas.
Figure 4 Assessment of biological activity through changes in methylation or acetylation and cell differentiation (A–C). Colored graphs illustrate epidrug targets and visualize expected outcomes upon target inhibition. Blue cylinders represent histone octomers (A,B) and green tubes represent microtubules (C). […] Histone methylation, histone acetylation, and α-tubulin acetylation levels were quantified from Western blot band intensities (Figure S18). Full Western blot images can be found in Figure S30. (D,E) Expression levels of mRNA were measured by RT-qPCR analysis and were normalized to two housekeeping genes, β-actin and GAPDH, for p21 and CD11b and CD86. […] Relative expression was determined with the 2(^−ΔΔCT) method, and the data are represented as the average ± standard error of the mean of two biological repeats with technical duplicates. (* p < 0.05, ** p < 0.01 student t-test). Illustrations were generated in BioRender.com.

normal RPE-1 cells = assay: Cell viability of normal RPE-1 cells (CTG); type: cell-based; details: 120 h
[1] = target: T1, Human recombinant C-ter-His-FLAG-HDAC1 (Homo sapiens, UniProt Q13547); assay: HDAC-Glo I/II enzyme assay, HDAC1; type: biochemical; details: ± standard error, three independent measurements
T1 construct: His (C); FLAG (C); purchased BPS Bioscience 50051
T1 sequence (Q13547 whole entry): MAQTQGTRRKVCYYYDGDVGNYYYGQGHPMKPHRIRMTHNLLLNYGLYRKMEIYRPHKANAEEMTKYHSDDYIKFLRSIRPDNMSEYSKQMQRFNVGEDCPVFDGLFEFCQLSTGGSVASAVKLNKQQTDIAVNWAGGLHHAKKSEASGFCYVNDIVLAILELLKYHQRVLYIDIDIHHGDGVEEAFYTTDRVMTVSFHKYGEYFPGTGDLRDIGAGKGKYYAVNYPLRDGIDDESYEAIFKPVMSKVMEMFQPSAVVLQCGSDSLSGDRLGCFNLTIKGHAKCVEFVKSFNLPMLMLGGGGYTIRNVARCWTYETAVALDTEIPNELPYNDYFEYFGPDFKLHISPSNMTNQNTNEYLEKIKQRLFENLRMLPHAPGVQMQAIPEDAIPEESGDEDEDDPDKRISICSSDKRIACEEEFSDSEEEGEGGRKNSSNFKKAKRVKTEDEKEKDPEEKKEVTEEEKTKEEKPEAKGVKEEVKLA

K-562 = assay: Cell Titer-Glo cell viability, K-562; type: cell-based; details: Homo sapiens, K562; 120 h, ± standard deviation, three biological repeats; read-out: IC50 cell viability K-562
LSD1 = LSD1 (Homo sapiens, UniProt O60341); assay: LSD1 MALDI-TOF enzyme assay; type: biochemical; set-up: made in house; details: ± standard error, three independent measurements
N-ter-GST-HDAC-6 = target: T2, N-ter-GST-HDAC-6 (Homo sapiens, UniProt Q9UBN7); assay: HDAC-Glo I/II enzyme assay, HDAC6; type: biochemical
T2 construct: GST (N); purchased BPS Bioscience 50006
T2 sequence (Q9UBN7 1-1215): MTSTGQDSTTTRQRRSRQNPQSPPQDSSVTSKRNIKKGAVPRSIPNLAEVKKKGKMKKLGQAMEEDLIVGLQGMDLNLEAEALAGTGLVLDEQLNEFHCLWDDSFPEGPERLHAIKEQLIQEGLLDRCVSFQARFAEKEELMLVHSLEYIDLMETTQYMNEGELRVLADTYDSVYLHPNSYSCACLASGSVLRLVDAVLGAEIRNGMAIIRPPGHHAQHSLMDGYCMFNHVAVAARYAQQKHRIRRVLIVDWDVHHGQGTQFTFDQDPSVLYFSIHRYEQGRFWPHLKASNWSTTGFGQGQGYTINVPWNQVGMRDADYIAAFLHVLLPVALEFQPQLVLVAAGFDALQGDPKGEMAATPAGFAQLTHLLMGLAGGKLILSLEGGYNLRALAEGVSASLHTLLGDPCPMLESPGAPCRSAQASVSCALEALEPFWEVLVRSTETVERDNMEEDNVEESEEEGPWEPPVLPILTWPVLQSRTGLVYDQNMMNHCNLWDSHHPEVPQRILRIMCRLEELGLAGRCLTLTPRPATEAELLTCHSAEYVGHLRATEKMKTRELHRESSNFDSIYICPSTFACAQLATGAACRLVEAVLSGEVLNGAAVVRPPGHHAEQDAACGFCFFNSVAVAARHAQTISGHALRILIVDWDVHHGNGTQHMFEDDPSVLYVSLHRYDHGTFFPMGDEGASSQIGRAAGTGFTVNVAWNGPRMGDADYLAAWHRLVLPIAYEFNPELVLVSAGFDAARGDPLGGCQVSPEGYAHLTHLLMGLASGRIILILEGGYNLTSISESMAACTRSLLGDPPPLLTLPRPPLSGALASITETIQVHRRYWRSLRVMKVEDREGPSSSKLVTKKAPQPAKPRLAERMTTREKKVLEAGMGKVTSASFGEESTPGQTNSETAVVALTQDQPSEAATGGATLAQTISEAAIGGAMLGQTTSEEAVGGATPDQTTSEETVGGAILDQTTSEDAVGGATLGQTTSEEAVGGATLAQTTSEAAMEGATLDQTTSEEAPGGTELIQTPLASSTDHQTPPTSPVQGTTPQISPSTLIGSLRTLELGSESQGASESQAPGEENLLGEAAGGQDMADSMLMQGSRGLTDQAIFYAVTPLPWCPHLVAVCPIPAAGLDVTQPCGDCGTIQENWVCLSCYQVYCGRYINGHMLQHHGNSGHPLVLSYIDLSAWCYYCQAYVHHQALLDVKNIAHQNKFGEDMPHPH

IC50 (LSD1) [µM]	HDAC6/HDAC1 isoform selectivity (N-ter-GST-HDAC-6) [fold]	IC50 (N-ter-GST-HDAC-6; ± standard error, three independent measurements) [µM]	SMILES	ATM expression increase (THP-1 cells; THP-1, 5 μM, 72 h)	ATR expression increase (THP-1 cells; THP-1, 5 μM, 72 h)	expression of a panel of ABC transporters (THP-1 cells; THP-1, 5 μM, 72 h)	expression of doxorubicin sensitizer genes (AGPAT9, ALOX5, BTG1, HIPK2, IFI44L, LRP1) (THP-1 cells; THP-1, 5 μM, 72 h, all targets of Table 3 except Wnt7B)	Rad51 expression increase (THP-1 cells; THP-1, 5 μM, 72 h, p ≤ 0.001)	p21 mRNA expression (THP-1 cells)	toxicity on normal RPE-1 cells (normal RPE-1 cells)	IC50 [1] [µM]	IC50 (K-562) [µM]
–	–	–	O=C(NO)c1ccc(CN2CCC(CN[C@@H]3C[C@H]3c3ccccc3)CC2)cc1 (relative stereo) [iDual]	~ two-fold	~ two-fold	no decrease	upregulated	three-fold	increased	no significant toxicity	5.31 ± 0.25	16.6 ± 2.7
> 100	> 30	0.23 ± 0.02	O=C(NO)c1ccc(CN2CCC(CNC3(c4ccccc4)CC3)CC2)cc1 [iHDAC6]	–	–	–	–	–	increased	–	7.57 ± 0.29	17.6 ± 1.6
